Assays:
[1] = Percentage recovery in rat hepatic microsomal fractions under oxidative conditions after 1 hour; assay type: ADME; conditions: liver microsomes, read-out: Recovery
Macaca mulatta = organism: Macaca mulatta; assay: Percentage recovery in rhesus monkey hepatic microsomal fractions under oxidative conditions after 1 hour; conditions: liver microsomes

remaining at 1 h [1]: 75% | remaining at 1 h (Macaca mulatta): 65%
Compound: CS(=O)(=O)c1ccc(-c2c(-c3ccccc3)nc3sccn23)cc1
